Experimental data as given in ChEMBL document CHEMBL1201862, “PubChem BioAssay data set” (2004).
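Values below derive from 48-hour exposures of cells grown in 96-well plates, with endpoints linearly interpolated between the two concentrations bracketing the appropriate inhibition level. The concentration for 50% growth inhibition is given as GI50.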 Calls of active or inactive are those of the source. Rule as the data show it: active = GI50 up to about 1.1 µM and inactive = higher.

Assays:
Experiment in all cases: DTP human tumour cell line panel, 48 h
[1] = system: XF498
[2] = system: DLD-1
[3] = system: DMS-114
[4] = system: LXFL 529
[5] = system: RXF 631
[6] = system: DMS-273
[7] = system: HOP-18
[8] = system: MDA-N
[9] = system: Hs-578T

Measured: GI50

O=C1c2ccccc2C(=O)c2c(O)c(NCCCNCCO)cc(O)c21
inactive: [1] 16 µM | [2] 6.49 µM | [3] 11 µM | [4] 11.1 µM | [5] 6.34 µM | [6] 4.97 µM | [7] 2.41 µM

COc1ccc(C(=O)Nc2ccccc2)cc1[N+](=O)[O-]
inactive: [1] > 100 µM | [2] > 100 µM | [3] 52.4 µM | [4] > 100 µM | [5] > 100 µM | [6] > 100 µM

CCOC(=O)c1c(CN2CCNCC2)nc2ccc(Cl)cc2c1-c1ccccc1
inactive: [1] 3.15 µM | [2] 2.98 µM | [3] 1.91 µM | [4] 1.74 µM | [5] 2.56 µM | [8] 5.78 µM | [6] 2.32 µM | [7] 1.79 µM

CC(NS(=O)(=O)c1ccc([N+](=O)[O-])cc1)C(=O)O (stereo not given)
inactive: [1] > 100 µM | [2] > 100 µM | [4] > 100 µM | [5] > 100 µM | [6] > 100 µM | [7] > 100 µM

COC(=O)CC1C(=O)OCc2c1cc1n(c2=O)Cc2c-1nc1ccccc1c2OC (stereo not given)
inactive: [1] > 100 µM | [3] 34.3 µM | [4] > 100 µM | [6] 12.7 µM | [7] 64.7 µM

CC(=O)N1CCN(C=S)CC1
inactive: [1] > 100 µM | [2] > 100 µM | [3] > 100 µM | [4] > 100 µM | [5] > 100 µM | [6] > 100 µM

CC(=O)NNc1nc(C)c(C(=O)NNC(=O)C(=O)Nc2c(C)cccc2C)s1
inactive: [2] 45.5 µM | [4] 41.8 µM | [5] 26.2 µM | [6] 31.8 µM | [7] 29.2 µM

N#CSCc1nc2ccc(Cl)cc2c(-c2ccccc2)[n+]1[O-]
inactive: [1] 17.4 µM | [3] 24.5 µM | [4] 13.9 µM | [5] 37.9 µM | [7] 19.5 µM

CCOC(=O)C1=C(C)N(NC(N)=O)C2(N)N(NC(N)=O)C(C)=C(C(=O)OCC)C12C#N (stereo not given)
inactive: [1] > 100 µM | [2] > 100 µM | [3] > 100 µM | [4] > 100 µM | [5] > 100 µM | [6] > 100 µM

O=C1CC(O)C=C1Nc1ccc(Cl)cc1 (stereo not given)
inactive: [2] 22.3 µM | [3] 26.4 µM | [4] 6.76 µM | [5] 31.4 µM | [6] 13.1 µM | [7] 29.4 µM

COc1ccc(/C=C/c2cc(OC)c(OC)c(OC)c2)cc1OC
inactive: [1] 77.8 µM | [2] 81.5 µM | [3] > 100 µM | [4] 78.9 µM | [5] > 100 µM | [6] > 82.2 µM | [7] > 100 µM

CCOC1=C2N=C(C(CC)c3ccc(F)cc3)N=C2C(=O)c2ccccc21 (stereo not given)
inactive: [1] 17.5 µM | [2] 7.55 µM | [3] 22.4 µM | [4] 23.9 µM | [6] 25.6 µM

COC(=O)CC(=O)OC
inactive: [1] > 100 µM | [2] > 100 µM | [3] > 100 µM | [4] > 100 µM | [6] > 100 µM | [7] > 100 µM

CCCCCC(=O)C(C)C1=Nc2nnc(CCCCCCCc3nnc4n3C(=O)C(C(C)C(=O)CCCCC)=N4)n2C1=O (stereo not given)
inactive: [1] > 100 µM | [2] > 100 µM | [3] > 100 µM | [4] > 100 µM | [5] > 100 µM | [7] > 100 µM

CCOC(=O)c1[nH]c2c(OC)n[n+]([O-])cc2c1[N+](=O)[O-]
inactive: [1] 16.1 µM | [2] 17.2 µM | [3] 22.2 µM | [4] 17.3 µM | [7] 20.5 µM

O=[N+]([O-])c1cc(C(F)(F)F)cc2n[se]nc12
inactive: [1] 2.39 µM | [2] 3.18 µM | [3] 2.36 µM | [4] 1.72 µM | [5] 11 µM | [8] 1.91 µM | [9] 19.3 µM | [6] 13.2 µM | [7] 3.14 µM

C[n+]1c2ccccc2c(NC(CS)C(=O)O)c2ccccc21 (stereo not given)
inactive: [1] 18.4 µM | [2] 23.1 µM | [3] 29.2 µM | [4] 20.4 µM | [5] 37.2 µM | [6] 22.1 µM | [7] 12 µM

O=C1[C@@H]2C(c3cccc([N+](=O)[O-])c3)=NO[C@@H]2C(=O)N1c1ccc(Cc2ccc(N3C(=O)[C@H]4C(c5cccc([N+](=O)[O-])c5)=NO[C@H]4C3=O)cc2)cc1
inactive: [2] > 100 µM | [3] > 100 µM | [4] > 100 µM | [5] > 100 µM | [6] > 100 µM | [7] > 100 µM

Clc1ccc(SCCCCCCCCCCSc2ccc(Cl)cc2)cc1
inactive: [1] > 100 µM | [2] > 100 µM | [3] > 100 µM | [4] > 100 µM | [6] > 100 µM | [7] > 100 µM

Cc1ccc(S(=O)(=O)N/N=C2\CCCCC23CCC(=O)NC3)cc1 (stereo not given)
inactive: [2] > 100 µM | [3] > 100 µM | [4] > 100 µM | [5] > 100 µM | [6] > 100 µM | [7] > 100 µM

C[C@H]1C(=O)CC[C@]2(C)CCC(C(C)(C)O)CC12O (stereo not given in full)
inactive: [2] > 100 µM | [3] > 100 µM | [4] > 100 µM | [5] > 100 µM | [6] > 100 µM | [7] > 100 µM

COc1ccc(C2=NC(CO)[C@H](c3ccccc3)O2)cc1OC (stereo not given in full)
inactive: [1] > 100 µM | [2] 78 µM | [3] > 100 µM | [4] > 100 µM | [5] > 100 µM | [6] > 100 µM

CC1(C)C(=NNC(=O)C[N+](C)(C)C)C(C)(C)C1=NNC(=O)C[N+](C)(C)C
inactive: [1] > 100 µM | [2] > 100 µM | [3] > 100 µM | [4] > 100 µM | [5] > 100 µM | [6] 42.2 µM | [7] > 100 µM

CC1=C2C(=O)[C@H]3[C@@H](CC=C4C[C@@H](O)CC[C@@]43C)[C@@H]2CC[C@]12O[C@@H]1C[C@H](C)CN[C@H]1[C@H]2C [JERVINE]
inactive: [2] 29.9 µM | [3] 18.9 µM | [4] 18.4 µM | [5] 23.2 µM | [8] > 100 µM | [9] > 100 µM | [6] 22 µM | [7] 17.1 µM
